The text below walks through data of ChEMBL document CHEMBL4334471, “Discovery of 1,8-disubstituted-[1,2,3]triazolo[4,5-c]quinoline derivatives as a new class of Hippo signaling pathway inhibitors” (Bioorg Med Chem Lett, 2019).

In assay [1] the test system is Proto-oncogene tyrosine-protein kinase Src (Homo sapiens), P12931 [T341M]. In words: Inhibition of recombinant full length human SRC T341M mutant assessed as residual activity at 10 uM using GGEEEEYFELVKK as substrate incubated for 40 mins in presence of [gamma33P]ATP by scintillation counting based radiometry assay relative to control.
Assay [2] deals with Serine/threonine-protein kinase Sgk1 (Homo sapiens), O00141 [S422D]. Nature of the assay: Inhibition of recombinant human SGK S422D mutant (60 to end residues) assessed as residual activity at 10 uM using GRPRTSSFAEGKK as substrate incubated for 40 mins in presence of [gamma33P]ATP by scintillation counting based radiometry assay relative to control.
Assay [3] has as its system Angiopoietin-1 receptor (Homo sapiens), Q02763 [Q939H,Q940H,R849W]. In words: Inhibition of recombinant human TIE2 Q939H/Q940H/R849W mutant (771 to end residues) assessed as residual activity at 10 uM using EFPIYDFLPAKKK as substrate incubated for 40 mins in presence of [gamma33P]ATP by scintillation counting based radiometry assay relative to control.
Assay [4] concerns Serine/threonine-protein kinase TAO3 (Homo sapiens), Q9H2K8 [UNDEFINED MUTATION]. In words: Inhibition of recombinant human TAO3 N47S mutant (1 to 411 residues) assessed as residual activity at 10 uM using myelin basic protein as substrate incubated for 40 mins in presence of [gamma33P]ATP by scintillation counting based radiometry assay relative to control.
The target in assay [5] is Activated CDC42 kinase 1 (Homo sapiens) (UniProt Q07912). In words: Inhibition of human ACK1 (1 to 389 residues) assessed as residual activity at 10 uM using EFPIYDFLPAKKK as substrate incubated for 40 mins in presence of [gamma-33ATP] by scintillation counting based radiometry assay relative to control.
Assay [6] deals with Mitogen-activated protein kinase kinase kinase 7 (Homo sapiens) (UniProt O43318). Nature of the assay: Inhibition of recombinant human TAK1 (1 to 303 residues) assessed as residual activity at 10 uM using casein as substrate incubated for 40 mins in presence of [gamma33P]ATP by scintillation counting based radiometry assay relative to control.
The target of assay [7] is Receptor-interacting serine/threonine-protein kinase 2 (Homo sapiens) (UniProt O43353). Nature of the assay: Inhibition of recombinant human RIPK2 (1 to 299 residues) assessed as residual activity at 10 uM using myelin basic protein as substrate incubated for 120 mins in presence of [gamma33P]ATP by scintillation counting based radiometry assay relative to control.
For assay [8], the target named is Cyclin-dependent kinase 5/CDK5 activator 1 (Homo sapiens) (UniProt Q00535+Q15078). Nature of the assay: Inhibition of recombinant full length human CDK5/p35 assessed as residual activity at 10 uM using histone H1 as substrate incubated for 40 mins in presence of [gamma-33ATP] by scintillation counting based radiometry assay relative to control. The class given is protein-complex assay.

The target of assay [9] is Serine/threonine-protein kinase Nek7 (Homo sapiens) (UniProt Q8TDX7). Nature of the assay: Inhibition of recombinant human NEK7 (2 to end residues) assessed as residual activity at 10 uM using FLAKSFGSPNRAYKK as substrate measured after 40 mins in presence of [gamma33P]ATP by scintillation counting based radiometry assay relative to control.
In assay [10] the target is CDK17/Cyclin-Y (Homo sapiens) (UniProt Q00537+Q8ND76). In words: Inhibition of recombinant full length human CDK17/cyclinY assessed as residual activity at 10 uM using PKSPKARKKL as substrate incubated for 40 mins in presence of [gamma-33ATP] by scintillation counting based radiometry assay relative to control. The class given is protein-complex assay.
Assay [11] concerns the target Ephrin type-A receptor 5 (Homo sapiens) (UniProt P54756). Nature of the assay: Inhibition of recombinant human EphA5 (655to 956 residues) assessed as residual activity at 10 uM using poly(Glu, Tyr) 4:1 as substrate at 40 mins in presence of [gamma-33ATP] by scintillation counting based radiometry assay relative to control.
The target of assay [12] is cGMP-dependent protein kinase 1 (Homo sapiens) (UniProt Q13976). In words: Inhibition of recombinant full-length human PKG1beta assessed as residual activity at 10 uM using RRRLSFAEPG as substrate incubated for 40 mins in presence of [gamma33P]ATP by scintillation counting based radiometry assay relative to control.
Assay [13] has as its target Cyclin-dependent kinase-like 2 (Homo sapiens) (UniProt Q92772). In words: Inhibition of recombinant full length human CDKL2 assessed as residual activity at 10 uM in presence of [gamma-33ATP] by scintillation counting based radiometry assay relative to control.
Assay [14] deals with Non-receptor tyrosine-protein kinase TYK2 (Homo sapiens) (UniProt P29597). Nature of the assay: Inhibition of recombinant human TYK2 (875 to end residues) assessed as residual activity at 10 uM using GGMEDIYFEFMGGKKK as substrate incubated for 40 mins in presence of [gamma33P]ATP by scintillation counting based radiometry assay relative to control.
The test system of assay [15] is Dual specificity protein kinase TTK (Homo sapiens), P33981 [S389A]. Nature of the assay: Inhibition of recombinant full-length human TTK S389A mutant assessed as residual activity at 10 uM using MBP as substrate incubated for 40 mins in presence of [gamma33P]ATP by scintillation counting based radiometry assay relative to control.
In assay [16] the test system is Tyrosine-protein kinase ABL1 (Homo sapiens), P00519 [T315I]. In words: Inhibition of human ABL1 T315I mutant (27 to end residues) assessed as residual activity at 10 uM using EAIYAAPFAKKK as substrate incubated for 40 mins in presence of [gamma-33ATP] by scintillation counting based radiometry assay relative to control.
Assay [17] deals with Protein kinase C gamma type (Homo sapiens) (UniProt P05129). Nature of the assay: Inhibition of recombinant full-length human PKCgamma assessed as residual activity at 10 uM using histone H1 as substrate incubated for 40 mins in presence of [gamma33P]ATP by scintillation counting based radiometry assay relative to control.
Assay [18] concerns the target Transcription initiation factor TFIID subunit 1-like (Homo sapiens) (UniProt Q8IZX4). Nature of the assay: Inhibition of recombinant human TAF1L (1428 to end residues) assessed as residual activity at 10 uM using RRRFRPASPLRGPPK as substrate incubated for 40 mins in presence of [gamma33P]ATP by scintillation counting based radiometry assay relative to control.
Assay [19] concerns the target Serine/threonine-protein kinase D3 (Homo sapiens) (UniProt O94806). In words: Inhibition of recombinant full-length human PKD3 assessed as residual activity at 10 uM using KKLNRTLSVA as substrate incubated for 40 mins in presence of [gamma33P]ATP by scintillation counting based radiometry assay relative to control.
The target in assay [20] is Activin receptor type-2A (Homo sapiens) (UniProt P27037). Nature of the assay: Inhibition of human ACTR2 (162 to end residues) assessed as residual activity at 10 uM using casein as substrate incubated for 120 mins in presence of [gamma-33ATP] by scintillation counting based radiometry assay relative to control.

SMILES strings stand for the structures.

Angiopoietin-1 receptor (Homo sapiens), Q02763 [Q939H,Q940H,R849W], sequence (Q02763 whole entry R849W/Q939H/Q940H, the tested form may be a part): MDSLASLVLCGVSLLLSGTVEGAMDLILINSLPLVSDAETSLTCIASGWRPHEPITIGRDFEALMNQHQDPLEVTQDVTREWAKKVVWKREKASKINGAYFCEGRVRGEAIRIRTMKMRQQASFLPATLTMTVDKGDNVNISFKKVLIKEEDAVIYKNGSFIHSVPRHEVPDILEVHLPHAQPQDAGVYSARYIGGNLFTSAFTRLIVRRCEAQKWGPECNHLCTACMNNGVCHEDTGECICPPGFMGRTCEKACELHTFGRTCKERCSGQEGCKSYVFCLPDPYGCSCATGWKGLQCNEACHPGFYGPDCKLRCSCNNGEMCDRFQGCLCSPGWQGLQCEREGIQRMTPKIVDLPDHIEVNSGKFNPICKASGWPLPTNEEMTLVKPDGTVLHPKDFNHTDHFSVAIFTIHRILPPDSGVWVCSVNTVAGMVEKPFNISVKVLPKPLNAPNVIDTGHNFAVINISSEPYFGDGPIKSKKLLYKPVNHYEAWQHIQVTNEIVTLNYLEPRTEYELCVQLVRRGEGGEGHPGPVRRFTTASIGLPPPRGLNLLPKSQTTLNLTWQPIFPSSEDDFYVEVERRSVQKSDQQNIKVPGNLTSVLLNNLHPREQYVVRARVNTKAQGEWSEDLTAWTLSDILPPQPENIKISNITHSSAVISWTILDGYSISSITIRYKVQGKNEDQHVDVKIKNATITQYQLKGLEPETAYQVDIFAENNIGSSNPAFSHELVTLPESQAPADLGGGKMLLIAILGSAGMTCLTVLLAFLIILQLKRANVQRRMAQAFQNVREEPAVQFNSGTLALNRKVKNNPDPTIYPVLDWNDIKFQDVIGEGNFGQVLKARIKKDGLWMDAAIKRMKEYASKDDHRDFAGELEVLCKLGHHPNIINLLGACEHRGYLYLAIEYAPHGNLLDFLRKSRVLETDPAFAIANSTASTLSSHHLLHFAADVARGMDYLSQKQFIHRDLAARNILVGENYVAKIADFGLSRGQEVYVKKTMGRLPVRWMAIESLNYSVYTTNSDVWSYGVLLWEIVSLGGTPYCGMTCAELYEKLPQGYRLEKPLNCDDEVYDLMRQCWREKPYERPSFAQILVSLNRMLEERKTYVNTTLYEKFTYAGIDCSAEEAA
Non-receptor tyrosine-protein kinase TYK2 (Homo sapiens), sequence (P29597 whole entry): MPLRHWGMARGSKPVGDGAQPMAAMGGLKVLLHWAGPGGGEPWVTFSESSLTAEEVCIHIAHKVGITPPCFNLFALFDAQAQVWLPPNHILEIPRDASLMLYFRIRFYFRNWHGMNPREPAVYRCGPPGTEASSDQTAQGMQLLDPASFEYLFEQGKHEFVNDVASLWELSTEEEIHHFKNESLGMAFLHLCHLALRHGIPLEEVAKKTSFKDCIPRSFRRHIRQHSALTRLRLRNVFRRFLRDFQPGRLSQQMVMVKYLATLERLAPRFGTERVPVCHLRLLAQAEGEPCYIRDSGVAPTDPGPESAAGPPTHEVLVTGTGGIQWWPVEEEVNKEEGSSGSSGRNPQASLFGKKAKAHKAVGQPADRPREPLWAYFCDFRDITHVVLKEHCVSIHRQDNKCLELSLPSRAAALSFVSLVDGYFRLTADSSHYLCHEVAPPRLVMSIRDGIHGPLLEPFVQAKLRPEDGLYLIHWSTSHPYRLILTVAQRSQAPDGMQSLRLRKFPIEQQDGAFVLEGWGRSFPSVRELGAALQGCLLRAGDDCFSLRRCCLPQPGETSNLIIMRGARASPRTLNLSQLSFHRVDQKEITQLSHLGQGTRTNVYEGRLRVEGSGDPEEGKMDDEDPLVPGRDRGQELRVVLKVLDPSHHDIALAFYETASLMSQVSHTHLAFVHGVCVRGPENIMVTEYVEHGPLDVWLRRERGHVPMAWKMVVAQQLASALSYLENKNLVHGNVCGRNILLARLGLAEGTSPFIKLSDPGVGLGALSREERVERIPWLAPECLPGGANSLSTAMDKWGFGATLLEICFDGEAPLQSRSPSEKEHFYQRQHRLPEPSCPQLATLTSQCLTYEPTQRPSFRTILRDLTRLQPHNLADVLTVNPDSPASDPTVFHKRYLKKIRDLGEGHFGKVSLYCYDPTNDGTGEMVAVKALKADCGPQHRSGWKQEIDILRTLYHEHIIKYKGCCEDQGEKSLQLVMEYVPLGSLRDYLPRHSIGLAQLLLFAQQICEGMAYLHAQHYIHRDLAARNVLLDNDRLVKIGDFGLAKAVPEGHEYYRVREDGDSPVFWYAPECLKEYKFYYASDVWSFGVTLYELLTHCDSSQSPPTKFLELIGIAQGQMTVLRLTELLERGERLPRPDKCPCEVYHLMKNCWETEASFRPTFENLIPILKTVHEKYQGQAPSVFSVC
Cyclin-dependent kinase-like 2 (Homo sapiens), sequence (Q92772 whole entry): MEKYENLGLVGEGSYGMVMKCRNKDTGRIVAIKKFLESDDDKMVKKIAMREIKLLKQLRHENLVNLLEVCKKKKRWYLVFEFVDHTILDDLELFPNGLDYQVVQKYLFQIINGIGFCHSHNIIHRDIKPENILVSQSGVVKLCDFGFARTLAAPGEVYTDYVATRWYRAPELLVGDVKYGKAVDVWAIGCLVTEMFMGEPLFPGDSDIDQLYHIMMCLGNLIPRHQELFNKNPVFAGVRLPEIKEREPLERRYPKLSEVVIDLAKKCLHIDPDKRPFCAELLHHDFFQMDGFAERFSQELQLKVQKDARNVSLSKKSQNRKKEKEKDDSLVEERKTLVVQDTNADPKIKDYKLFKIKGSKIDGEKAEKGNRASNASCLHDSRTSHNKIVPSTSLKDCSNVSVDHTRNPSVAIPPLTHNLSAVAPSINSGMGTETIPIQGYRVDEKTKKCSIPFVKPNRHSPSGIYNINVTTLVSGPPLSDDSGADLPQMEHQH
Receptor-interacting serine/threonine-protein kinase 2 (Homo sapiens), sequence (O43353 whole entry, the tested form may be a part): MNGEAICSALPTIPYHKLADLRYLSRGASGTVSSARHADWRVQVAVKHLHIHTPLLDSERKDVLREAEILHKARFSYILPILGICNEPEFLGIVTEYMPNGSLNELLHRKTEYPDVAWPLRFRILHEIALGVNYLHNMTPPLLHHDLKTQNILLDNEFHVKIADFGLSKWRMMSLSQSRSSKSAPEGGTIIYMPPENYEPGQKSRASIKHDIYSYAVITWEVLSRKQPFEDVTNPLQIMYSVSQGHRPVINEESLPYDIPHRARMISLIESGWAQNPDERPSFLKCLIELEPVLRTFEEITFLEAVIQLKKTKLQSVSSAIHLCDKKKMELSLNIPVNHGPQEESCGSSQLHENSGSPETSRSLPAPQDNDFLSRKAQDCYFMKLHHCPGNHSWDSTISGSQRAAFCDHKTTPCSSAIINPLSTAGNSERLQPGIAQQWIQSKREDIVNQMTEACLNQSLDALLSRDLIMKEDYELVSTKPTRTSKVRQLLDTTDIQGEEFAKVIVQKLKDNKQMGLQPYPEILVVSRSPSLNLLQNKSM
Activin receptor type-2A (Homo sapiens), sequence (P27037 whole entry): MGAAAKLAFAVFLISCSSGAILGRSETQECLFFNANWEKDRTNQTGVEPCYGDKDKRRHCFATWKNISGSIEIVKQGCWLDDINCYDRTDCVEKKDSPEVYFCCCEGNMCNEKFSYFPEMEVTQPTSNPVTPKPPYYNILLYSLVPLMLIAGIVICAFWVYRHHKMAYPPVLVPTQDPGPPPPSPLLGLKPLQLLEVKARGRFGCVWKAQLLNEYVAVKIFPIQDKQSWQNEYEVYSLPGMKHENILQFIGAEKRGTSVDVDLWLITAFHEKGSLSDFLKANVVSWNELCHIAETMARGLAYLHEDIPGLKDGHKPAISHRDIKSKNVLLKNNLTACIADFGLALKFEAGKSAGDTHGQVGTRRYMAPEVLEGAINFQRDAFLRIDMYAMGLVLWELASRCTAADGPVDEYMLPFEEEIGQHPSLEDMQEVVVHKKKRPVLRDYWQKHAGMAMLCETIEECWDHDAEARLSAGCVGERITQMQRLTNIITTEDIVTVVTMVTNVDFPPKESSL
Serine/threonine-protein kinase Sgk1 (Homo sapiens), O00141 [S422D], sequence (O00141 whole entry S422D): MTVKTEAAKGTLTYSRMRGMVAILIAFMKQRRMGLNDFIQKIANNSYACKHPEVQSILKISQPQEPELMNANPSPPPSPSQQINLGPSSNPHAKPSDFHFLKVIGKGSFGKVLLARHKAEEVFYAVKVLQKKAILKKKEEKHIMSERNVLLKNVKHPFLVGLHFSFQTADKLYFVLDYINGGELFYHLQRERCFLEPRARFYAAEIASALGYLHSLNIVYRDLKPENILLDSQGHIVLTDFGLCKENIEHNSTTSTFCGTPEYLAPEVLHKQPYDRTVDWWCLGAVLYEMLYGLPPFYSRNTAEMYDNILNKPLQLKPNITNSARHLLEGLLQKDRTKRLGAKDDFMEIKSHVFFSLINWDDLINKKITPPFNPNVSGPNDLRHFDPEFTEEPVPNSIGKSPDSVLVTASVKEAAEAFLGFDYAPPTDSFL

Regarding `C[C@@H](c1ccccc1)n1nnc2cnc3ccc(-c4cnc5[nH]ccc5c4)cc3c21`, the Activity in [1] turned out to be 74%; in assay [2] it was 52%; in assay [3] it was 103%; in assay [4], 68%; in [5] it was 22%; in [6] it was 91%. For the same compound, the Activity in assay [7] is 23%; in assay [8] it was 84%; in assay [9], 119%; in assay [10] it was 85%; in [11] it was 102%; in assay [12], 66%. In addition, the Activity in assay [13] stood at 56%; in [14], 60%; in assay [15], 2%; in assay [16], 110%; in assay [17], 83%; in assay [18] it was 85%. The Activity amounted to 53% in assay [19] and 101% in [20].
